Reference: PubChem BioAssay (NCI)
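Method: 48-hour compound exposure of cells in 96-well plates, five concentrations, linear interpolation of endpoints. At the GI50, growth is halved. TGI is the concentration that stops growth completely.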

How the values were obtained:
Assay in all cases: inhibition of tumour cell growth, NCI panel, 48 h
HT29 colon = test system: HT29 colon
OVCAR-4 ovarian = test system: OVCAR-4 ovarian
SF-295 CNS = test system: SF-295 CNS
SNB-75 CNS = test system: SNB-75 CNS
OVCAR-8 ovarian = test system: OVCAR-8 ovarian
CCRF-CEM leukemia = test system: CCRF-CEM leukemia
OVCAR-5 ovarian = test system: OVCAR-5 ovarian
U251 CNS = test system: U251 CNS
UACC-257 melanoma = test system: UACC-257 melanoma
ACHN renal = test system: ACHN renal

SMILES | TGI (HT29 colon) | TGI (OVCAR-4 ovarian) | TGI (SF-295 CNS) | TGI (SNB-75 CNS) | TGI (OVCAR-8 ovarian) | TGI (CCRF-CEM leukemia) | TGI (OVCAR-5 ovarian) | TGI (U251 CNS) | TGI (UACC-257 melanoma) | TGI (ACHN renal) | GI50 (HT29 colon) | GI50 (OVCAR-4 ovarian) | GI50 (OVCAR-8 ovarian) | GI50 (ACHN renal) | GI50 (CCRF-CEM leukemia) | GI50 (OVCAR-5 ovarian) | GI50 (U251 CNS) | GI50 (UACC-257 melanoma) | GI50 (SF-295 CNS) | GI50 (SNB-75 CNS)
N#CC(C#N)=c1ccc(=C2NCC3CCCN23)cc1 (stereo unspecified) | > 100 µM | > 100 µM | > 100 µM | > 100 µM | > 100 µM | > 100 µM | > 100 µM | > 100 µM | > 100 µM | – | – | – | – | – | – | – | – | – | – | –
COc1ccc(-n2/c(=N/C(=S)N(C)C)ss/c2=N\C(=S)N(C)C)cc1 | 5.97 µM | 18.5 µM | > 100 µM | 52.6 µM | > 100 µM | – | > 100 µM | > 100 µM | > 100 µM | > 100 µM | – | – | – | – | – | – | – | – | – | –
CC(=O)NC1=C(NCC(C)(C)C)C(=O)c2ccccc2C1=O | > 100 µM | > 100 µM | > 100 µM | > 100 µM | > 100 µM | > 100 µM | – | > 100 µM | > 100 µM | 74.5 µM | – | – | – | – | – | – | – | – | – | –
O=C1NC2(CCCCC2)C2CCCCC(O)C12 (stereo unspecified) | > 100 µM | – | > 100 µM | > 100 µM | > 100 µM | > 100 µM | > 100 µM | > 100 µM | > 100 µM | > 100 µM | – | – | – | – | – | – | – | – | – | –
Clc1cccc(Cc2cn3cc(-c4ccccc4)nc3s2)c1Cl | > 100 µM | 55.2 µM | – | – | > 100 µM | > 100 µM | > 100 µM | > 100 µM | > 100 µM | > 100 µM | > 100 µM | 3.85 µM | 23.5 µM | 30.2 µM | > 100 µM | > 100 µM | 25.5 µM | 67.3 µM | – | –
c1cc2c(cc1NC1=NCCO1)CCC2 | > 10 µM | > 10 µM | > 10 µM | > 10 µM | > 10 µM | > 10 µM | – | – | – | – | – | – | – | – | – | – | – | – | – | –
CNC(=O)c1cc(Oc2ccc3nc(NC(=O)Nc4ccc(Cl)c(C(F)(F)F)c4)sc3c2)ccn1 | – | – | 3.71 µM | 3.24 µM | 5.25 µM | – | 7.55 µM | – | > 100 µM | 3.8 µM | – | – | 2.34 µM | 1.85 µM | – | 2.46 µM | – | 3.37 µM | 1.79 µM | 1.52 µM
O=C(O)CCSC(=O)Nc1cccc(F)c1 | > 100 µM | – | > 100 µM | – | > 100 µM | > 100 µM | > 100 µM | > 100 µM | > 100 µM | > 100 µM | – | – | – | – | – | – | – | – | – | –
CC(=O)OC1COC(n2c(=S)n(-c3ccc(C)cc3)c(=O)c3ccccc32)C(OC(C)=O)C1OC(C)=O (stereo unspecified) | > 100 µM | > 100 µM | > 100 µM | > 100 µM | > 100 µM | – | > 100 µM | > 100 µM | > 100 µM | > 100 µM | – | – | – | – | – | – | – | – | – | –
O=C1/C(=C/c2ccc([N+](=O)[O-])cc2)COc2ccc(O)c(O)c21 | 5.85 µM | 2.78 µM | 5.17 µM | 3.82 µM | 9.93 µM | – | 3.74 µM | 3.55 µM | 4.32 µM | 2.92 µM | 2.2 µM | 1.44 µM | 2.29 µM | 1.5 µM | – | 1.81 µM | 0.785 µM | 1.89 µM | 2.21 µM | 1.55 µM
CC1CN1P1(N2CC2C)=NP(N2CC2C)(N2CC2C)=NP(N2CC2C)(N2CC2C)=N1 (stereo unspecified) | > 50 µM | > 50 µM | > 50 µM | > 50 µM | > 50 µM | > 50 µM | – | > 50 µM | – | > 50 µM | – | – | – | – | – | – | – | – | – | –
Nc1ccc(C(=O)N/C(=C\c2ccc3c(c2)OCO3)c2nc3[nH]c(=S)[nH]c(=O)c3[nH]2)cc1 | > 100 µM | > 100 µM | > 100 µM | – | > 100 µM | > 100 µM | > 100 µM | > 100 µM | – | > 100 µM | – | – | – | – | – | – | – | – | – | –
COc1ccc(-c2cc(=O)c3ccc(O)cc3o2)c(OC)c1OC | > 100 µM | > 100 µM | > 100 µM | 71.4 µM | – | > 100 µM | – | – | > 100 µM | > 100 µM | – | – | – | – | – | – | – | – | – | –
COc1ccccc1NC(=O)CC(=O)n1nc(C)c(N=Nc2ccccc2C(=O)O)c1C | > 100 µM | > 100 µM | > 100 µM | > 100 µM | > 100 µM | > 100 µM | > 100 µM | > 100 µM | > 100 µM | – | – | – | – | – | – | – | – | – | – | –
O=C(N/C(=C\c1cc(Cl)ccc1Cl)c1nc2[nH]c(=S)[nH]c(=O)c2[nH]1)c1ccccc1 | 39.6 µM | > 100 µM | > 100 µM | > 100 µM | > 71.8 µM | 69.7 µM | > 100 µM | > 76.1 µM | – | > 100 µM | – | – | – | – | – | – | – | – | – | –
COc1ccc(C2=CSc3cc(Cl)c(C)cc3S(=O)(=O)N2C(C)=O)cc1 | – | – | – | – | > 100 µM | > 100 µM | > 100 µM | 55.8 µM | > 100 µM | 43.7 µM | – | – | 33.8 µM | 18.8 µM | 38.6 µM | 52.7 µM | 21.2 µM | 36.2 µM | – | –
Oc1ccc(Cl)cc1-c1cc(-c2ccccc2Cl)[nH]n1 | > 100 µM | > 100 µM | > 100 µM | > 100 µM | > 100 µM | > 100 µM | > 100 µM | – | > 100 µM | > 100 µM | 15.2 µM | 0.28 µM | 7.13 µM | 8.17 µM | 2.71 µM | 8.88 µM | – | 30.8 µM | 8.71 µM | 2.77 µM
CCOC(=O)C(Sc1ccccc1)c1c(OC)cc(=O)oc1/C=[N+](/[O-])c1ccc(N(C)C)cc1 (stereo unspecified) | 31.4 µM | 51.6 µM | 67 µM | 76.4 µM | 44.2 µM | 15.4 µM | 83.1 µM | 60.7 µM | 28.7 µM | – | – | – | – | – | – | – | – | – | – | –
CC1=C(C(=O)Nc2ccccc2C)C(c2ccco2)C(C(=O)Nc2ccccc2C)=C(C)N1C | > 100 µM | > 100 µM | > 100 µM | – | > 100 µM | > 100 µM | > 100 µM | > 100 µM | > 100 µM | > 100 µM | – | – | – | – | – | – | – | – | – | –
CC1=C(C(=O)Nc2ccc(F)c(Cl)c2)C(c2ccc(Cl)cc2)NC(=O)N1 (stereo unspecified) | 27.8 µM | – | > 100 µM | 30.5 µM | 36.8 µM | 38.8 µM | 42.9 µM | 33.2 µM | 38.6 µM | 63 µM | 14.3 µM | – | 18.4 µM | 22 µM | 15.3 µM | 19.5 µM | 16.7 µM | 19.4 µM | 32.5 µM | 5.28 µM
CCOC(=O)COc1cccc2c1C(=O)CCO2 | > 100 µM | > 100 µM | > 100 µM | – | > 100 µM | > 100 µM | > 100 µM | > 100 µM | > 100 µM | > 100 µM | – | – | – | – | – | – | – | – | – | –
